Here are results for nine compounds from patent publication US12157746B2, “Tetrahydro-1H-pyrazino[2,1-a]isoindolylquinoline compounds for the treatment of autoimmune disease” (F. HOFFMANN-LA ROCHE AG, priority 2018, dated 2024).

pIC50: −log10 of the molar value.

The experiment concerns the target T1, human TLR7 (Homo sapiens, UniProt Q9NYK1).
T1 sequence (Q9NYK1 27-1049): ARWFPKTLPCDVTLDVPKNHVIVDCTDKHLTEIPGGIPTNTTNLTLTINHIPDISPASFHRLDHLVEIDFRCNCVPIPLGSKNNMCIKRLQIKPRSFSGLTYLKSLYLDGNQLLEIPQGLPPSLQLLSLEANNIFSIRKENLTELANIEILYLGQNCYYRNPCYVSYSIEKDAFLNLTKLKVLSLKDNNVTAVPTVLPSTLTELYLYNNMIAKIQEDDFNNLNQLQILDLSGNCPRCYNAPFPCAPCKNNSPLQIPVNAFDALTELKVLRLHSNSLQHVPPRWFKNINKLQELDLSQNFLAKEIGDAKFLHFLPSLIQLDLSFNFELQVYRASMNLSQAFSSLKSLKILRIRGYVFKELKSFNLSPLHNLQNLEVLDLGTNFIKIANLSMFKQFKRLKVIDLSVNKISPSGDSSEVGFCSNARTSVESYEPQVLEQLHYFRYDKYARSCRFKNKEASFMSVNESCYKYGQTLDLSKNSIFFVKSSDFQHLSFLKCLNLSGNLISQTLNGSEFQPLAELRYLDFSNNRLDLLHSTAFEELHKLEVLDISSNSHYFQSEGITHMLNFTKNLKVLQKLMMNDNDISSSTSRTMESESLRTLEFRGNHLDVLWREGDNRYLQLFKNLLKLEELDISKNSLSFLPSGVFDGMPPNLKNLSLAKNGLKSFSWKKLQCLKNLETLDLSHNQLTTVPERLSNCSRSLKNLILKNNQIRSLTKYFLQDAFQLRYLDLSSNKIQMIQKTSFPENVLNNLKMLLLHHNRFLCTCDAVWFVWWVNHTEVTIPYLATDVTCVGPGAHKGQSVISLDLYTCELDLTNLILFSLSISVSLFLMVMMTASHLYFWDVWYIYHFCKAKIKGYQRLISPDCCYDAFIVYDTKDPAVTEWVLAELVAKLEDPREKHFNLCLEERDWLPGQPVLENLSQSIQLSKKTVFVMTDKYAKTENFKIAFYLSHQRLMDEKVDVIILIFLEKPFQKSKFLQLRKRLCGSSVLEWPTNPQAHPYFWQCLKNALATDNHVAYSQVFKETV
Nature of the experiment: HEK293-Blue-hTLR-7 cells assay. The format is cell-based. To be noted: HEK293-Blue-hTLR7 cells, R848 stimulation, 20 hrs, SEAP reporter; read-out: HEK/hTLR7 IC50. The method in brief: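 HEK293-Blue-hTLR7 cells (NF-κB/AP-1-driven SEAP reporter) incubated with serially diluted compound (1% DMSO final) and R848 agonist for 20 h at 37 °C. Supernatant SEAP measured with QUANTI-Blue (2 h, 37 °C) by absorbance at 620-655 nm; antagonism seen as reduced reporter.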
For the compound `C[C@@H]1CN(c2ccc(C#N)c3ncccc23)C[C@@H]2c3ccc(N4CC5(CN(C)C5)C4)cc3CN12` [Example 38, 5-[(4R,10bS)-4-methyl-8-(6-methyl-2,6-diazaspiro[3.3]heptan-2-yl)-3,4,6,10b-tetrahydro-1H-pyrazino[2,1-a]isoindol-2-yl]quinoline-8-carbonitrile], the pIC50 was 8.77.
Under `C[C@@H]1CN(c2ccc(C#N)c3ncccc23)C[C@@H]2c3ccc(N4CCNC[C@@H]4CO)cc3CN12` [Example 10, 5-[(4R,10bS)-8-[(2R)-2-(hydroxymethyl)piperazin-1-yl]-4-methyl-3,4,6,10b-tetrahydro-1H-pyrazino[2,1-a]isoindol-2-yl]quinoline-8-carbonitrile] stands more than 8.49.
Take `C[C@@H]1CN(c2ccc(C#N)n3nccc23)C[C@@H]2c3ccc(N4C[C@@H](N)[C@H](O)C4)cc3CN12` [Example 110, 4-[(4R,10bS)-8-[(3R,4R)-3-amino-4-hydroxy-pyrrolidin-1-yl]-4-methyl-3,4,6,10b-tetrahydro-1H-pyrazino[2,1-a]isoindol-2-yl]pyrazolo[1,5-a]pyridine-7-carbonitrile]: the pIC50 was 7.72.
Consider `C[C@@H]1CN(c2ccc(C#N)c3ncccc23)C[C@@H]2c3ccc(N4C[C@H](N)[C@@](C)(O)C4)cc3CN12` [Example 45B, 5-[(4R,10bS)-8-[(3S,4S)-4-amino-3-hydroxy-3-methyl-pyrrolidin-1-yl]-4-methyl-3,4,6,10b-tetrahydro-1H-pyrazino[2,1-a]isoindol-2-yl]quinoline-8-carbonitrile], for which the pIC50 was 8.48.
Under `C[C@@H]1CN(c2ccc(C#N)c3ncccc23)C[C@@H]2c3ccc(NCCN(C)C)cc3CN12` [Example 26, 5-[(4R,10bS)-8-[2-(dimethylamino)ethylamino]-4-methyl-3,4,6,10b-tetrahydro-1H-pyrazino[2,1-a]isoindol-2-yl]quinoline-8-carbonitrile] stands 8.24; under `N#Cc1ccc(N2CCN3Cc4cc(N5CCNCC5)ccc4C3C2)c2scnc12` (stereo not drawn) [Example 4, 7-(8-piperazin-1-yl-3,4,6,10b-tetrahydro-1H-pyrazino[2,1-a]isoindol-2-yl)-1,3-benzothiazole-4-carbonitrile], 7.74; under `C[C@@H]1CN(c2ccc(C#N)c3ncccc23)C[C@@H]2c3ccc(N4C[C@H]5NCCO[C@@H]5C4)cc3CN12` [Example 44, 5-[(4R,10bS)-4-methyl-8-[(4aR,7aR)-3,4,4a,5,7,7a-hexahydro-2H-pyrrolo[3,4-b][1,4]oxazin-6-yl]-3,4,6,10b-tetrahydro-1H-pyrazino[2,1-a]isoindol-2-yl]quinoline-8-carbonitrile], 7.72.
Turning to `CO[C@H]1CN(c2ccc3c(c2)CN2C3CN(c3ccc(C#N)c4ncccc34)C[C@H]2C)C[C@@H]1N` (single isomer, unassigned) [Example 16A], the pIC50 was 8.28.
Under `C[C@@H]1CN(c2ccc(C#N)n3nccc23)C[C@@H]2c3ccc(N4CCOC[C@H](N)C4)cc3CN12` [Example 101, 4-[(4R,10bS)-8-[(6R)-6-amino-1,4-oxazepan-4-yl]-4-methyl-3,4,6,10b-tetrahydro-1H-pyrazino[2,1-a]isoindol-2-yl]pyrazolo[1,5-a]pyridine-7-carbonitrile] stands 7.58.
